Measured values as given in PubChem BioAssay (NCI).
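Briefly, cells in 96-well plates were exposed to five compound concentrations for 48 h, and endpoints were estimated by linear interpolation. TGI denotes the concentration required for complete inhibition of growth.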

Key:
Assay in all cases: NCI tumour cell line growth inhibition, 48 h
DU-145 prostate = test system: DU-145 prostate
SK-MEL-5 melanoma = test system: SK-MEL-5 melanoma
UACC-257 melanoma = test system: UACC-257 melanoma
A498 renal = test system: A498 renal
SF-268 CNS = test system: SF-268 CNS
CCRF-CEM leukemia = test system: CCRF-CEM leukemia
MDA-MB-435 = test system: MDA-MB-435
MDA-N = test system: MDA-N
OVCAR-5 ovarian = test system: OVCAR-5 ovarian
A549 NSCLC = test system: A549 NSCLC
MDA-MB-231 breast = test system: MDA-MB-231 breast
MOLT-4 leukemia = test system: MOLT-4 leukemia
CAKI-1 renal = test system: CAKI-1 renal
HCT-15 colon = test system: HCT-15 colon
UACC-62 melanoma = test system: UACC-62 melanoma
RXF 393 renal = test system: RXF 393 renal
HCC-2998 colon = test system: HCC-2998 colon
BT-549 breast = test system: BT-549 breast
HOP-92 NSCLC = test system: HOP-92 NSCLC
M14 melanoma = test system: M14 melanoma
SW-620 colon = test system: SW-620 colon
SNB-75 CNS = test system: SNB-75 CNS
NCI-H522 lung = test system: NCI-H522 lung
TK-10 renal = test system: TK-10 renal
OVCAR-3 ovarian = test system: OVCAR-3 ovarian
ACHN renal = test system: ACHN renal
HT29 colon = test system: HT29 colon
KM12 colon = test system: KM12 colon
SK-MEL-2 melanoma = test system: SK-MEL-2 melanoma
OVCAR-4 ovarian = test system: OVCAR-4 ovarian
HCT-116 colon = test system: HCT-116 colon
SR leukemia = test system: SR leukemia
UO-31 renal = test system: UO-31 renal
PC-3 prostate = test system: PC-3 prostate
SF-295 CNS = test system: SF-295 CNS
EKVX NSCLC = test system: EKVX NSCLC
MALME-3M melanoma = test system: MALME-3M melanoma
HOP-62 NSCLC = test system: HOP-62 NSCLC
SK-MEL-28 melanoma = test system: SK-MEL-28 melanoma
U251 CNS = test system: U251 CNS
NCI-H460 lung = test system: NCI-H460 lung
NCI-H226 lung = test system: NCI-H226 lung
OVCAR-8 ovarian = test system: OVCAR-8 ovarian
LOX IMVI melanoma = test system: LOX IMVI melanoma
SN12C renal = test system: SN12C renal
IGROV1 ovarian = test system: IGROV1 ovarian
T-47D breast = test system: T-47D breast
786-0 renal = test system: 786-0 renal
NCI-H23 lung = test system: NCI-H23 lung
K-562 leukemia = test system: K-562 leukemia
HS 578T breast = test system: HS 578T breast
NCI/ADR-RES ovarian = test system: NCI/ADR-RES ovarian
SNB-19 CNS = test system: SNB-19 CNS

Measured: TGI

NC(CCc1ccccc1)(C(=O)O)c1ccccc1 (stereo not drawn)
> 100 µM: all assays above
